Results taken from patent publication US20220347125A1, “ANTITUMOR AGENT AND COMPOUNDING AGENT” (Keio University, priority 2019, published 2022).
d = 2'-deoxy (DNA); r = 2'-OH (RNA)

What was measured:
A549, HCT116 and HSC4 = assay: Cell viability, oxyfedrine with SSZ or BSO, statements for all three lines (Experimental Example 11); details: 48 hours; for effect on cell survival rate: 400 μM sulfasalazine alone or 100 μM L-buthionine sulfoximine alone
Description: Alveolar basal epithelial adenocarcinoma cell line A549, colon adenocarcinoma cell line HCT116, and oral squamous carcinoma cell line HSC-4, all of which are resistant to sulfasalazine or L-buthionine-sulfoximine, were seeded in 96-well plates at 4000 cells/well, and the culture was started. RPMI was used for the A549 and DMEM was used for the HCT116 and HSC-4 as culture media. After 24 hours, each medium was replaced with a medium containing 50 or 100 μM oxyfedrine or an equal volume of DMSO, and 0 (no sulfasalazine and no L-buthionine sulfoximine) or 400 μM sulfasalazine or 100 μM L-buthionine sulfoximine, and the culture was continued for 48 hours. Then, the cells were assayed for cell viability using CellTiter-Glo (Promega), and a cell survival rate in each case was calculated taking the number of live cells in the control (DMSO added, and sulfasalazine and L-buthionine sulfoximine not added) as 100%.

[1] = tested on: SSZ-resistant tumor cells (HCT116 and HSC-4); assay: Intracellular GSH levels, GSH-Glo Glutathione Assay (Experimental Example 12); type: cell-based; details: BSO or OXY alone, or SSZ with OXY, after 48 hours
Description: SSZ-resistant tumor cells (HCT116 and HSC-4) were used and the cells were treated in a similar manner to that in Example 11, and the intracellular GSH levels were measured after 48 hours using a GSH-Glo Glutathione Assay Kit (Promega).

[2] = tested on: sulfasalazine-resistant tumor cells (HCT116 and HSC-4); assay: Intracellular HNE accumulation, SSZ or BSO with OXY (Experimental Example 13); type: cell-based; details: SSZ, BSO or OXY alone, or SSZ or BSO in combination with OXY
Description: (§1) As in Experimental Example 1, HSC-4 cells were cultured in a medium containing 50 μM dyclonine or an equal volume of DMSO and 0 μM (not added) or 400 μM sulfasalazine, and the treated cells were fixed with 4% PFA-PBS. Then, the cells were permeabilized with 0.2% Triton X100-PBS, followed by blocking with 3% BSA-PBS. Subsequently, fluorescent staining was performed using an anti-HNE antibody as the primary antibody and AlexaFluor 488-conjugated anti-mouse IgG antibody as the secondary antibody. As a positive control, cells incubated with 50 μM HNE for 30 min were used and stained using antibodies in a similar manner.
In this experimental example, sulfasalazine-resistant tumor cells (HCT116 and HSC-4) were used, and the cells were treated as in Experimental Example 6 and then observed under a fluorescence microscope.

ALDH = ALDH activity, ALDEFLUOR Kit with FACS in HSC-4 cells (Experimental Example 5); type: cell-based; details: 50 μM dyclonine 24 hours, or DEAB, DMSO-treated cells approximately 25%
Description: HSC-4 cells, a sulfasalazine-resistant oral squamous carcinoma cell line, were seeded at 8×10^5 cells/dish in 10-cm cell culture dishes, and culture was started. DMEM was used as the culture medium. After 24 hours, the medium was replaced with a medium containing 50 μM dyclonine (solvent: DMSO), and the cells were cultured for another 24 hours. The cells were then collected, stained with the ALDEFLUOR Kit (STEMCELL Technologies) for ALDH activity in the presence of N,N-diethylaminobenzaldehyde (DEAB), and analyzed by FACS (“Dyclonine” in the figure). As a control, experimental results are shown for cells cultured in the absence of DEAB which were not stained with the ALDEFLUOR Kit (“Unstained” in the figure), and cells that were stained with the ALDEFLUOR Kit after replacing the medium with an equal volume of medium with DMSO and without dyclonine (“Non-treatment” in the figure). For the positive cell counts, a gate was set to gate out positive cells to almost 0% in the DMSO-treated sample stained with the ALDEFLUOR Kit in the presence of DEAB (“DEAB” in the figure), and the positive rate in each case was calculated.

A549 cells [3] = assay: Cell viability, Nrf2 siRNA or ML385 with OXY and SSZ or BSO (Experimental Example 18); type: cell-based; details: in addition to 400 μM SSZ and 50 μM OXY, 48 hours
Description: A549 cells were transfected with siRNA against the Nrf2 gene as in Example 17, or the medium was supplemented with ML385 that is an Nrf2 inhibitor. Cells were cultured for 48 hours in a medium containing 50 μM OXY, and 400 μM SSZ or 100 μM BSO, as in Example 11. Then, the cells were assayed for cell viability. As a control, the experiments were performed in a medium without any of the above. DMSO, however, was added appropriately to add a constant volume of DMSO in all cases.

[4] = tested on: HSC-4, a sulfasalazine-resistant oral squamous carcinoma cell line; assay: Cell viability (CellTiter-Glo), sulfasalazine and dyclonine (Experimental Example 1); type: cell-based; details: 48 hours
Description: HSC-4, a sulfasalazine-resistant oral squamous carcinoma cell line, was seeded in a 96-well plate at 2000 cells/well, and culture was started. DMEM was used as the culture medium. After 24 hours, the medium was replaced with a medium containing 50 μM dyclonine or an equal volume of DMSO, as well as 0 (not added), 50, 100, 200, or 400 μM sulfasalazine, and the culture was continued for 48 hours.

HSC-4 cells [5] = assay: Dyclonine sensitivity after xCT knockdown, cell viability (Experimental Example 2); type: cell-based; details: 48 hours
Description: HSC-4 cells, a sulfasalazine-resistant oral squamous carcinoma cell line, were seeded in a 96-well plate at 3000 cells/well, and nonsilencing control (scrambled (Sense: UUCUCCGAACGUGUCACGUtt (SEQ ID NO. 1), Antisense: ACGUGACACGUUCGGAGAAtt (SEQ ID NO. 2))) and siRNA or xCT specific siRNA (xCT siRNA #1 Sense: AGAAAUCUGGAGGUCAUUAtt (SEQ ID NO. 3), Antisense: […] (SEQ ID NO. 4), xCT siRNA #2 Sense: CCAGAACAUUACAAAUAAUtt (SEQ ID NO. 5), Antisense: AUUAUUUGUAAUGUUCUGGtt (SEQ ID NO. 6)) were lipofected using Lipofectamine RNAiMAX (Thermo Fisher Scientific), and culture was started. DMEM was used as the culture medium. After 24 hours, the medium was replaced with a medium containing 50 μM dyclonine (solvent: DMSO) or an equal volume of DMSO, and the culture was continued for 48 hours.

HSC-4 cells [6] = assay: Intracellular HNE accumulation, anti-HNE fluorescent staining (Experimental Example 6); type: cell-based; details: 50 μM dyclonine and/or 400 μM sulfasalazine
Description: as §1

[7] = tested on: SSZ-resistant tumor cells (HCT116 and HSC-4); assay: Cell survival rate after ionizing radiation in the presence of OXY (Experimental Example 16); type: cell-based; details: irradiated at 4, 6 or 10 Gy in the presence of 50 μM OXY, after 24 hours; versus irradiation or OXY alone
Description: (§2) In this experimental example, SSZ-resistant tumor cells (HCT116 and HSC-4) were irradiated with ionizing radiation at a dose of 4, 6, or 10 Gy using an X-ray irradiation system (Hitachi MBR-1520R-4, settings: 150 kV, 20 mA) in the presence of 50 μM oxyfedrine (OXY). In parallel, samples without OXY and ionizing radiation (0 Gy) were processed as a control. After 24 hours, cell survival rate was calculated as in Experimental Example 1. In addition, intracellular HNE was visualized as in Experimental Example 6.

[8] = tested on: SSZ-resistant tumor cells (HCT116 and HSC-4); assay: Intracellular HNE after ionizing radiation in the presence of OXY (Experimental Example 16); type: cell-based; details: irradiation and 50 μM OXY treatment in combination
Description: as §2

[9] = tested on: sulfasalazine-resistant, oral squamous carcinoma cell line HSC-2; assay: In vivo tumor weight, X-irradiation and oxyfedrine (Experimental Example 19); parameters: species or system nude mice; details: oxyfedrine 20-30 mg/kg intraperitoneally Days 1-7, versus non-treated group
Description: The mice were injected intraperitoneally with oxyfedrine (OXY) (20 mg/kg) for 3 consecutive days (Days 1-3) immediately after transplantation. On Day4, oxyfedrine (30 mg/kg) was intraperitoneally administered, and X-rays (4, 6, or 10 Gy) were irradiated to the nude mice 2 hours later. Then, after intraperitoneal administration of oxyfedrine (20 mg/kg) for 3 days (Days 5-7), tumors were collected on Day 7 and weighed. The results are shown in a bar graph in FIG. 21. The groups of nude mice on which transplantation was performed in the same way, to which oxyfedrine was administered in the same way without X-irradiation, and to which no oxyfedrine was administered with X-irradiation in the same way, were used as controls. For statistical treatment, Student's 1-test was performed between the oxyfedrine and non-treated groups for each X-ray dose, and p value of less than 0.05 was considered significant.

A549 cells [10] = assay: Western blotting after Nrf2 siRNA lipofection (Experimental Example 17); type: cell-based; details: 48 hours after lipofection
Description: Nrf2, xCT, and β-actin expressions were detected in the extracts of SSZ-resistant tumor cells (HCT116, HSC-4, and A549) via Western blotting with primary antibodies against Nrf2, xCT, and β-actin and HRP-conjugated secondary antibody. Chemiluminescence Reagent Plus (Perkin-Elmer Japan) was used for detection.
Next, siRNA against the Nrf2 gene was lipofected into A549 cells to suppress the Nrf2 gene expression. The extracts of the lipofected A549 cells were prepared after 48 hours and the expressions of Nrf2, xCT, ALDH3A1, and β-actin were examined via Western blotting in the same way as above. The following sequences (bases shown in lower case are DNA overhangs) were used as siRNA.

## CCCCS(=N)(=O)CC[C@H](N)C(=O)O (stereo partly drawn) [BSO, L-buthionine-sulfoximine]
A549, HCT116 and HSC4
  effect on cell survival rate: little effect
[1]
  intracellular GSH levels: reduced
[2]
  intracellular HNE levels and frequency: increased intracellular HNE levels were observed at a low frequency

## CCN(CC)c1ccc(C=O)cc1 [DEAB, N,N-diethylaminobenzaldehyde]
ALDH
  cell population with high ALDH activity: approximately 1%

## Cc1ccccc1C(=O)N1CCc2cc(-c3nc(NC(=O)Cc4ccc5c(c4)OCO5)sc3C)ccc21 [ML385]
A549 cells [3]
  cell survival rate: effectively reduced

## CCCCOc1ccc(C(=O)CCN2CCCCC2)cc1 [dyclonine]
[4]; 50 μM dyclonine alone, no sulfasalazine added, control (DMSO) = 100%
  cell survival: 80%
HSC-4 cells [5]; 50 μM dyclonine alone (nonsilencing control)
  HSC-4 cell survival rate: approximately 60%
HSC-4 cells [5]; xCT knockdown (xCT siRNA) in the presence of 50 μM dyclonine
  HSC-4 cell survival rate: 10-20%
ALDH
  cell population with high ALDH activity: approximately 1%
HSC-4 cells [6]
  intracellular HNE level and frequency: an increase in intracellular HNE level was observed at a low frequency

## O=C(O)c1cc(/N=N/c2ccc(S(=O)(=O)Nc3ccccn3)cc2)ccc1O [sulfasalazine]
[4]; sulfasalazine alone, 50-400 μM
  effect on cell survival: almost no effect
HSC-4 cells [6]
  intracellular HNE level and frequency: an increase in intracellular HNE level was observed at a low frequency
A549, HCT116 and HSC4
  effect on cell survival rate: little effect
[1]
  intracellular GSH levels: reduced
[2]
  intracellular HNE levels and frequency: increased intracellular HNE levels were observed at a low frequency

## oxyfedrine
A549, HCT116 and HSC4; 50 μM oxyfedrine alone, without sulfasalazine
  cytotoxic effect: no significant cytotoxic effect
[1]
  intracellular GSH levels: did not reduce the intracellular GSH levels
[2]
  intracellular HNE levels and frequency: increased intracellular HNE levels were observed at a low frequency
[7]
  cell survival rate: significantly and markedly reduced
[8]
  intracellular HNE-accumulating cells: high levels of intracellular HNE-accumulating cells were observed at a high frequency
[9]; 4 Gy X-irradiation
  tumor weight gain: tended to be suppressed
[9]; 6 Gy X-irradiation
  tumor weight gain: significantly suppressed
[9]; 10 Gy X-irradiation
  tumor weight gain: significantly suppressed
[9]; without X-irradiation
  tumor weight gain: tended to be suppressed

## siRNA against the Nrf2 gene: siRNA against the Nrf2 gene, SEQ ID NO. 9 and 10 (chain 1 UCCUACUGUGAUGUGAAAUTT; chain 2 AUUUCACAUCACAGUAGGAGC; sugars from the 5' end r19 d2, backbone not given here)
A549 cells [10]
  expressions of xCT and ALDH3A1: suppressed
A549 cells [3]
  cell survival rate: effectively reduced
